The subject of assay [1] is HeLa cells. The experiment in a line: Cell cycle analysis, PI staining flow cytometry. The class given is cell-based, human. The settings on record: 48 h; for cells in G1 phase: control 33.42%. The method, then: Cell cycle was detected by PI single staining method. Cell suspension with a concentration of 2 × 10^5 cells/mL was prepared after cell counting. 1 mL cell suspension was added to each well of the 6-well plate and then placed in an incubator overnight. The medium in each well was discarded, and 1 mL of gradient diluted derivative solution 6 (0, 0.46, 0.92 and 1.84 µM) was added (the control group was added with serum-free medium). According to the manual of Cell Cycle Detection Kit KGA511, after 48 h, HeLa cells were collected and fixed with 70% ethanol for 2 h. After centrifugation, 100 μL RNase A (working concentration 20 μg/mL) was added and placed in a 37 °C water bath for 30 min. Then 400 μL PI staining (working concentration 50 μg/mL) was added and mixed, centrifugal tube was placed in the dark at 4 °C for 30 min. Red fluorescence at the excitation wavelength of 488 nm was recorded by flow cytometry.

For assay [2], the system named is L-02 cells. Nature of the assay: CCK-8 cytotoxicity assay, normal liver L-02. In kind it is cell-based. The settings on record: Homo sapiens, read-out: IC50 L-02. The method, then: (§1) All cells were cultured in Dulbecco’s Modified Eagle’s Medium (DMEM) (Burlington, MA, USA) or Roswell Park Memorial Institute (RPMI)-1640 medium containing 10% fetal bovine serum and 1% penicillin/streptomycin in an incubator at 37 °C and 5% CO2. […] Cell suspension with a concentration of 8 × 10^4 cells/mL was prepared after cell counting. 100 μL cell suspension was added to each well of the 96-well plate and then placed in an incubator overnight. Most of the derivatives were configured into 80 mM, 20 mM or 4 mM stock solution in DMSO, and the stock solution concentration of BFA and paclitaxel was 0.4 mM. […] The medium in each well was discarded, and 100 μL of gradient diluted derivative solution was added (the control group was added with serum-free medium).

For assay [3], the system named is HeLa cells. Nature of the assay: Mitochondrial membrane potential analysis, JC-1 staining. In kind it is cell-based, human. The following applies: 48 h; for JC-1 quadrant Q1-LL / JC-1 quadrant Q1-UL: control 0.00%; for JC-1 green fluorescent cells (decreased mitochondrial membrane potential), quadrant Q1-LR: control 4.07%; for JC-1 quadrant Q1-UR: control 95.93%. The method, then:
Mitochondrial membrane potential was detected by the JC-1 staining method. According to the manual of JC-1 Apoptosis Detection Kit KGA601, HeLa cells in 6-well plates were collected by 0.25% trypsin without EDTA (in PBS) digestion after 48 h administration. The Incubation Buffer was prepared according to the instructions, mixing and preheating to 37 °C. 500 μL 1 × Incubation Buffer was mixed with 1 μL JC-1 (working concentration 10 μg/mL) to suspend HeLa cells and then the cells were incubated for 20 min. Cells were collected by centrifugation at room temperature, washed twice with 1 × Incubation Buffer and then detected by BD FACSVerse flow cytometer.

Assay [4] has as its system A549 cells. Nature of the assay: CCK-8 antiproliferative assay, A549. The class given is cell-based. The settings on record: Homo sapiens, read-out: IC50 A549. The method, then:
as §1
(In general: Formazan colour is commonly taken as a measure of viable cells.)

Assay [5] has as its system MDA-MB-231 cells. Nature of the assay: CCK-8 antiproliferative assay, MDA-MB-231. The class given is cell-based. The settings on record: Homo sapiens, read-out: IC50 MDA-MB-231. On the procedure: as §1
The test system of assay [6] is HeLa cells. Nature of the assay: Annexin V-FITC/PI apoptosis analysis, flow cytometry. In kind it is cell-based, human. The following applies: 48 h, control 3.21%. The method, then:
According to the manual of Annexin V-FITC/PI Apoptosis Detection Kit KGA105, HeLa cells in 6-well plates were collected by 0.25% trypsin without EDTA (in PBS) digestion after 48 h administration by the above method. After washing with PBS 3 times, 500 μL Binding Buffer was added to suspend HeLa cells. Then Annexin V-FITC and PI were added successively in dark for 15 min, and HeLa cell apoptosis was detected by BD FACSVerse flow cytometer.
(In general: Flow cytometry measures light scatter and fluorescence of single cells or particles in a stream.)

For assay [7], the system named is HepG2 cells. Nature of the assay: CCK-8 antiproliferative assay, HepG2. The class given is cell-based. The following applies: Homo sapiens, read-out: IC50 HepG2. On the procedure: as §1
The test system of assay [8] is A375 cells. Nature of the assay: CCK-8 antiproliferative assay, A375. The settings on record: Homo sapiens, read-out: IC50 A375. The class given is cell-based. The method, then:
as §1

The subject of assay [9] is HeLa cells. The experiment in a line: Hoechst 33258 staining assay. In kind it is cell-based, human. The following applies: HeLa, 0.46, 0.92 and 1.84 µM, 48 h. The method, then: HeLa cells in 6-well plates were collected after administration. According to the manual of Apoptotic Cell Hoechst 33258 Detection Kit KGA211, HeLa cells were fixed with paraformaldehyde for 30 min. After centrifugation, HeLa cells were soaked in PBS for 5 min and washed 3 times. An appropriate amount of Hoechst 33258 staining solution (working concentration 0.5 μg/mL) was added so that fully covers the HeLa cells and then the cells were left at room temperature for 10 min. After dyeing, HeLa cells were soaked in PBS for 5 min and washed 3 times. Observation under an Olympus (Tokyo, Japan) IX73 fluorescence microscope after sealing with an anti-fluorescence quenching sealing solution (glycerol:PBS = 1:9).

The subject of assay [10] is HeLa cells. Nature of the assay: CCK-8 antiproliferative assay, HeLa. In kind it is cell-based, human. The following applies: for IC50: Homo sapiens, HeLa, read-out: IC50 HeLa; for SIHeLa, selectivity index between L-02 and HeLa: SI = IC50(L-02)/IC50(HeLa). On the procedure: as §1
Where [11] appears, read: L02, CCK-8, 48 h, normal liver cells, mean ± SD of three experiments.
Setting [12] is: A549, CCK-8, 48 h, mean ± SD of three experiments.
Setting [13] is: MDA-MB-231, CCK-8, 48 h, mean ± SD of three experiments.
The mark [14] stands for this setting: HepG2, CCK-8, 48 h, mean ± SD of three experiments.
The mark [15] stands for this setting: A-375, CCK-8, 48 h, mean ± SD of three experiments.
Setting [16] is: CCK-8, 48 h, mean ± SD of three experiments.

Structures can show the parent of a compound that is named as a salt. Where two headings read alike, the source gives them in different places.

A word on the IC50: it is the concentration needed to halve the response being measured.

Consider `C[C@H]1CCC/C=C/[C@@H]2C[C@H](O)C[C@H]2[C@H](OC(=O)c2ccc(N=C=S)cc2)/C=C/C(=O)O1` [Compound 6, (1R,2E,6S,10E,11aS,13S,14aR)-13-Hydroxy-6-methyl-4-oxo-1,6,7,8,9,11a,12,13,14,14a-decahydro-4H-cyclopenta[f][1]oxacyclotridecin-1-yl 4-isothiocyanatobenzoate], for which the “cells in G1 phase” value was 43.39% in [1] (0.46 µM), 49.55% in [1] (0.92 µM) and 60.80% in assay [1] (1.84 µM). For the same compound, in assay [1] (1.84 µM, control 22.94%), the “cells in G2 phase” value was 12.50%. Besides, in assay [1] (1.84 µM, control 43.64%), the “cells in S phase” value is 26.70%. The IC50 in [2] (setting [11]) is above 80 µM; in [4] (setting [12]), 7.18 ± 0.51 µM; in assay [5] (setting [13]), 6.83 ± 0.61 µM; in assay [7] (setting [14]), 20.8 ± 1.22 µM; in [8] (setting [15]), 3.08 ± 0.43 µM; in [10] (setting [16]), 1.84 ± 0.08 µM. For the same compound, the “JC-1 quadrant Q1-LL” value in assay [3] (0.46 µM), in assay [3] (0.92 µM) and in assay [3] (1.84 µM) was 0.00% throughout. Besides, the “JC-1 quadrant Q1-UL” value in assay [3] (0.46 µM), in assay [3] (0.92 µM) and in [3] (1.84 µM) was 0.00% in each case. The “JC-1 green fluorescent cells (decreased mitochondrial membrane potential), quadrant Q1-LR” value is 13.88% in [3] (0.46 µM), 24.80% in assay [3] (0.92 µM) and 39.69% in assay [3] (1.84 µM). Moreover, the “JC-1 quadrant Q1-UR” value was determined as 86.12% in assay [3] (0.46 µM), 75.20% in assay [3] (0.92 µM) and 60.31% in assay [3] (1.84 µM). The “percentage of cells in the early and late stages of apoptosis” value in assay [6] (0.46 µM) came to 16.04%; in [6] (0.92 µM), 26.41%; in [6] (1.84 µM), 39.03%. Also, the “nuclear morphology, Hoechst33258 staining” value in [9] is listed as “nuclear fragmentation”.

Turning to `O=C(O)c1ccc(N=C=S)cc1` [Compound 2, 4-Carboxyphenyl isothiocyanate, reference compound], the half-maximal inhibitory concentration (IC50) is 67.8 ± 2 µM in assay [2] (L02, 48 h); 79.2 ± 2.52 µM in assay [4] (A549, 48 h); 82.1 ± 2.7 µM in [5] (MDA-MB-231, 48 h); above 100 µM in assay [7] (HepG2, 48 h); 43 ± 3.34 µM in assay [8] (A-375, 48 h); 45.7 ± 1.74 µM in assay [10] (48 h). Also, in assay [10], the “SIHeLa, selectivity index between L-02 and HeLa” value amounted to 1.48.

For `C[C@H]1CCC/C=C/[C@@H]2C[C@H](O)C[C@H]2[C@H](OC(=O)CCC(=O)OCC#CCOC(=O)c2ccc(N=C=S)cc2)/C=C/C(=O)O1` [Compound 9c, (1R,2E,6S,10E,11aS,13S,14aR)-13-Hydroxy-6-methyl-4-oxo-1,6,7,8,9,11a,12,13,14,14a-decahydro-4H-cyclopenta[f][1]oxacyclotridecin-1-yl (4-((4-isothiocyanatobenzoyl)oxy)but-2-yn-1-yl) succinate], the half-maximal inhibitory concentration (IC50) in assay [2] (setting [11]) came to 17.4 ± 0.44 µM; in assay [4] (setting [12]) it was 13.19 ± 0.03 µM; in [5] (setting [13]), 9.77 ± 0.22 µM; in [7] (setting [14]) it was 8.84 ± 0.28 µM; in [8] (setting [15]) it was 10.4 ± 0.16 µM; in [10] (setting [16]), 3.63 ± 0.15 µM. In [10], the “SIHeLa, selectivity index between L-02 and HeLa” value worked out at 4.79.

`C[C@H]1CCC/C=C/[C@@H]2C[C@H](O)C[C@H]2[C@H](OC(=O)/C=C\C(=O)OCCCCCCOC(=O)c2ccc(N=C=S)cc2)/C=C/C(=O)O1` [Compound 9k, (1R,2E,6S,10E,11aS,13S,14aR)-13-Hydroxy-6-methyl-4-oxo-1,6,7,8,9,11a,12,13,14,14a-decahydro-4H-cyclopenta[f][1]oxacyclotridecin-1-yl (6-((4-isothiocyanatobenzoyl)oxy)hexyl) maleate]: the concentration for half-maximal inhibition (IC50) in assay [2] (setting [11]) is 23.9 ± 1.23 µM; in assay [4] (setting [12]), 8.34 ± 0.24 µM; in [5] (setting [13]), 2.61 ± 0.08 µM; in assay [7] (setting [14]) it was 3.28 ± 0.27 µM; in assay [8] (setting [15]), 7.27 ± 0.57 µM; in assay [10] (setting [16]), 2.39 ± 0.1 µM.

Take `C[C@H]1CCC/C=C/[C@@H]2C[C@H](OC(=O)c3ccc(N=C=S)cc3)C[C@H]2[C@H](OC(=O)c2ccc(N=C=S)cc2)/C=C/C(=O)O1` [Compound 5, (1R,2E,6S,10E,11aS,13S,14aR)-6-methyl-4-oxo-1,6,7,8,9,11a,12,13,14,14a-decahydro-4H-cyclopenta[f][1]oxacyclotridecine-1,13-diyl bis(4-isothiocyanatobenzoate)]: the IC50 in [2] (setting [11]) was above 80 µM; in assay [4] (setting [12]), 20.9 ± 1.42 µM; in assay [5] (setting [13]), above 40 µM; in [7] (setting [14]) it was above 40 µM; in [8] (setting [15]), above 40 µM; in [10] (setting [16]), above 40 µM.

As to `C[C@H]1CCC/C=C/[C@@H]2C[C@H](OC(=O)CCC(=O)OCCOCCOC(=O)c3ccc(N=C=S)cc3)C[C@H]2[C@H](OC(=O)CCC(=O)OCCOCCOC(=O)c2ccc(N=C=S)cc2)/C=C/C(=O)O1` [Compound 8d, Bis(2-(2-((4-isothiocyanatobenzoyl)oxy)ethoxy)ethyl) O,O’-((1R,2E,6S,10E,11aS,13S,14aR)-6-methyl-4-oxo-1,6,7,8,9,11a,12,13,14,14a-decahydro-4H-cyclopenta[f][1]oxacyclotridecine-1,13-diyl) disuccinate], the IC50 was above 80 µM in assay [2] (setting [11]); above 40 µM in assay [4] (setting [12]); above 40 µM in assay [5] (setting [13]); above 40 µM in [7] (setting [14]); 22.8 ± 1.58 µM in assay [8] (setting [15]); 7.67 ± 0.33 µM in assay [10] (setting [16]).

As for `C[C@H]1CCC/C=C/[C@@H]2C[C@H](O)C[C@H]2[C@H](OC(=O)/C=C\C(=O)OCC#CCOC(=O)c2ccc(N=C=S)cc2)/C=C/C(=O)O1` [Compound 9i, (1R,2E,6S,10E,11aS,13S,14aR)-13-Hydroxy-6-methyl-4-oxo-1,6,7,8,9,11a,12,13,14,14a-decahydro-4H-cyclopenta[f][1]oxacyclotridecin-1-yl (4-((4-isothiocyanatobenzoyl)oxy)but-2-yn-1-yl) maleate], the IC50 in assay [2] (setting [11]) turned out to be 28.14 ± 0.14 µM; in [4] (setting [12]) it was 10.3 ± 0.35 µM; in [5] (setting [13]) it was 10 ± 0.26 µM; in [7] (setting [14]), 11.9 ± 0.32 µM; in assay [8] (setting [15]) it was 9.1 ± 0.46 µM; in assay [10] (setting [16]), 6.59 ± 0.75 µM. Further, the “SIHeLa, selectivity index between L-02 and HeLa” value in assay [10] is reported as 4.27.
